Measurements: patent US9833497B2, “Human originated EGF domain proteins and use of the same” (CHENGDU SOURCEBIO LIMITED-LIABILITY COMPANY, priority 2013, dated 2017)

How the values were obtained:
Type in all cases: cell-based
[1] = test system: Proteus mirabilis; experiment: MIC against Gram-negative bacteria: Proteus mirabilis
How it was run: (§1)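 LB broth cultures at McFarland 0.5, spun down, resuspended, diluted to 5×10^5 CFU/mL final. Two-fold serial dilutions of purified human EGF domain proteins, triplicate. 37° C, 175 rpm shaking. Endpoint: no visible growth.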

[2] = test system: Enterobacter cloacae; experiment: MIC against Gram-negative bacteria: Enterobacter cloacae
How it was run: as §1

[3] = test system: Pseudomonas aeruginosa; experiment: MIC against Gram-negative bacteria: Pseudomonas aeruginosa
How it was run: as §1

[4] = test system: E. coli BL21; experiment: MIC against Gram-negative bacteria: E. coli BL21
How it was run: as §1

[5] = test system: Klebsiella pneumonia; experiment: MIC against Gram-negative bacteria: Klebsiella pneumonia
How it was run: as §1

[6] = test system: Aeromonas hydrophila; experiment: MIC against Gram-negative bacteria: Aeromonas hydrophila
How it was run: as §1

[7] = test system: Citrobacter diversus; experiment: MIC against Gram-negative bacteria: Citrobacter diversus
How it was run: as §1

[8] = test system: Proteus vulgaris; experiment: MIC against Gram-negative bacteria: Proteus vulgaris
How it was run: as §1

[9] = test system: E. coli DH5α; experiment: Antibacterial activity: MIC and growth curve against E. coli DH5α in 96-well plate; settings: minimal inhibitory concentration against E. coli DH5α; 96-well plate, 5×10^5 CFU/mL, 37° C., judged after 8 h
How it was run: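 Log-phase DH5α (OD600 about 0.5, 37° C, 185 rpm in LB) was pelleted, resuspended in fresh LB and seeded at 5×10^5 CFU/mL with recombinant protein at 50, 25 and 12.5 μg/mL (two-fold series), in triplicate. Plates were shaken at 175 rpm, 37° C, and OD600 was read every 30 min. MIC was the lowest concentration with no growth.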

[10] = test system: Serratia marcescens; experiment: MIC against Gram-negative bacteria: Serratia marcescens
How it was run: as §1

[11] = test system: Moraxella catarrhalis; experiment: MIC against Gram-negative bacteria: Moraxella catarrhalis
How it was run: as §1

[12] = Proteus mirabilis, 5×10^5 CFU/mL, 10 h cultivation at 37° C.
[13] = Enterobacter cloacae, 5×10^5 CFU/mL, 10 h cultivation at 37° C.
[14] = Pseudomonas aeruginosa, 5×10^5 CFU/mL, 10 h cultivation at 37° C.
[15] = E. coli BL21, 5×10^5 CFU/mL, 10 h cultivation at 37° C.
[16] = Klebsiella pneumonia, 5×10^5 CFU/mL, 10 h cultivation at 37° C.
[17] = Aeromonas hydrophila, 5×10^5 CFU/mL, 10 h cultivation at 37° C.
[18] = Citrobacter diversus, 5×10^5 CFU/mL, 10 h cultivation at 37° C.
[19] = Proteus vulgaris, 5×10^5 CFU/mL, 10 h cultivation at 37° C.
[20] = Serratia marcescens, 5×10^5 CFU/mL, 10 h cultivation at 37° C.
[21] = Moraxella catarrhalis, 5×10^5 CFU/mL, 10 h cultivation at 37° C.
[22] = P. mirabilis, 10 h cultivation at 37° C., 5×10^5 CFU/mL
[23] = E. cloacae, 10 h cultivation at 37° C., 5×10^5 CFU/mL
[24] = P. aeruginosa, 10 h cultivation at 37° C., 5×10^5 CFU/mL
[25] = E. coli BL21, 10 h cultivation at 37° C., 5×10^5 CFU/mL
[26] = K. pneumonia, 10 h cultivation at 37° C., 5×10^5 CFU/mL
[27] = A. hydrophila, 10 h cultivation at 37° C., 5×10^5 CFU/mL
[28] = C. diversus, 10 h cultivation at 37° C., 5×10^5 CFU/mL
[29] = P. vulgaris, 10 h cultivation at 37° C., 5×10^5 CFU/mL
[30] = S. marcescens, 10 h cultivation at 37° C., 5×10^5 CFU/mL
[31] = M. catarrhalis, 10 h cultivation at 37° C., 5×10^5 CFU/mL
[32] = 96-well plate, 5×10^5 CFU/mL, 37° C., 10 h
[33] = 10 h cultivation at 37° C., 5×10^5 CFU/mL, two-fold serial dilution

PRT1389 (PEEQCIDPTCFGHGTCIMGVCICVPGYKGEICE; listed as Homo sapiens)
MIC against P. mirabilis [1, 12]: 12.5 µg/mL
MIC against E. cloacae [2, 13]: 25 µg/mL
MIC against P. aeruginosa [3, 14]: 25 µg/mL
MIC against E. coli BL21 [4, 15]: 12.5 µg/mL
MIC against K. pneumonia [5, 16]: 12.5 µg/mL
MIC against A. hydrophila [6, 17]: 12.5 µg/mL
MIC against C. diversus [7, 18]: 12.5 µg/mL
MIC against P. vulgaris [8, 19]: 25 µg/mL
MIC [9]: 25 µg/mL
MIC against S. marcescens [10, 20]: 12.5 µg/mL
MIC against M. catarrhalis [11, 21]: 12.5 µg/mL

PRT765 (VRDKCALGSHGCQHICVSDGAASYHCDCYPGYTLNEDKKTCS; listed as Homo sapiens)
MIC (μg/mL) P. mirabilis [1, 22]: 12.5 µg/mL
MIC (μg/mL) E. cloacae [2, 23]: 12.5 µg/mL
MIC (μg/mL) P. aeruginosa [3, 24]: 12.5 µg/mL
MIC (μg/mL) E. coli BL21 [4, 25]: 50 µg/mL
MIC (μg/mL) K. pneumonia [5, 26]: 50 µg/mL
MIC (μg/mL) A. hydrophila [6, 27]: 12.5 µg/mL
MIC (μg/mL) C. diversus [7, 28]: 12.5 µg/mL
MIC (μg/mL) P. vulgaris [8, 29]: 12.5 µg/mL
MIC [9]: 12.5 µg/mL
MIC (μg/mL) S. marcescens [10, 30]: 12.5 µg/mL
MIC (μg/mL) M. catarrhalis [11, 31]: 12.5 µg/mL

PRT448 (SFRCQCEPGFQLGPNNRSCVDVNE; listed as Homo sapiens)
MIC against P. mirabilis [1, 32]: 25 µg/mL
MIC against E. cloacae [2, 32]: 12.5 µg/mL
MIC against P. aeruginosa [3, 32]: 100 µg/mL
MIC against E. coli BL21 [4, 32]: 50 µg/mL
MIC against K. pneumonia [5, 32]: 50 µg/mL
MIC against A. hydrophila [6, 32]: 50 µg/mL
MIC against C. diversus [7, 32]: 25 µg/mL
MIC against P. vulgaris [8, 32]: 50 µg/mL
MIC [9]: 12.5 µg/mL
MIC against S. marcescens [10, 32]: 12.5 µg/mL
MIC against M. catarrhalis [11, 32]: 12.5 µg/mL

PRT1467 (QPQDCPPSTCLNGGTCHLGTRHHLACLCPEGFTGLYCE; listed as Homo sapiens)
MIC against P. mirabilis [1, 12]: 50 µg/mL
MIC against E. cloacae [2, 13]: 50 µg/mL
MIC against P. aeruginosa [3, 14]: 25 µg/mL
MIC against E. coli BL21 [4, 15]: 50 µg/mL
MIC against K. pneumonia [5, 16]: 12.5 µg/mL
MIC against A. hydrophila [6, 17]: 25 µg/mL
MIC against C. diversus [7, 18]: 12.5 µg/mL
MIC against P. vulgaris [8, 19]: 25 µg/mL
MIC [9]: 25 µg/mL
MIC against S. marcescens [10, 20]: 12.5 µg/mL
MIC against M. catarrhalis [11, 21]: 25 µg/mL

PRT1053 (QLVSCPRNVSECSHDCVLTSEGPLCFCPEGSVLERDGKTCS; listed as Homo sapiens)
MIC P. mirabilis [1, 33]: 100 µg/mL
MIC E. cloacae [2, 33]: 12.5 µg/mL
MIC P. aeruginosa [3, 33]: 12.5 µg/mL
MIC E. coli BL21 [4, 33]: 12.5 µg/mL
MIC K. pneumonia [5, 33]: 50 µg/mL
MIC A. hydrophila [6, 33]: 50 µg/mL
MIC C. diversus [7, 33]: 12.5 µg/mL
MIC P. vulgaris [8, 33]: 12.5 µg/mL
MIC [9]: 12.5 µg/mL
MIC S. marcescens [10, 33]: 100 µg/mL
MIC M. catarrhalis [11, 33]: 12.5 µg/mL

PRT177 (GPGPCDGNPCANGGSCSETPRSFECTCPRGFYGLRCE; listed as Homo sapiens)
MIC (μg/mL) P. mirabilis [1, 22]: 50 µg/mL
MIC (μg/mL) E. cloacae [2, 23]: 50 µg/mL
MIC (μg/mL) P. aeruginosa [3, 24]: 12.5 µg/mL
MIC (μg/mL) E. coli BL21 [4, 25]: 25 µg/mL
MIC (μg/mL) K. pneumonia [5, 26]: 25 µg/mL
MIC (μg/mL) A. hydrophila [6, 27]: 25 µg/mL
MIC (μg/mL) C. diversus [7, 28]: 12.5 µg/mL
MIC (μg/mL) P. vulgaris [8, 29]: 25 µg/mL
MIC [9]: 50 µg/mL
MIC (μg/mL) S. marcescens [10, 30]: 12.5 µg/mL
MIC (μg/mL) M. catarrhalis [11, 31]: 25 µg/mL

PRT1021 (LQNPCYIGTHGCDTNAACRPGPRTQFTCECSIGFRGDGRTCY; listed as Homo sapiens)
MIC ([1]; P. mirabilis, 10 h cultivation at 37° C.): 50 µg/mL
MIC ([2]; E. cloacae, 10 h cultivation at 37° C.): 25 µg/mL
MIC ([3]; P. aeruginosa, 10 h cultivation at 37° C.): 25 µg/mL
MIC ([4]; E. coli BL21, 10 h cultivation at 37° C.): 12.5 µg/mL
MIC ([5]; K. pneumonia, 10 h cultivation at 37° C.): 50 µg/mL
MIC ([6]; A. hydrophila, 10 h cultivation at 37° C.): 12.5 µg/mL
MIC ([7]; C. diversus, 10 h cultivation at 37° C.): 50 µg/mL
MIC ([8]; P. vulgaris, 10 h cultivation at 37° C.): 12.5 µg/mL
MIC [9]: 25 µg/mL
MIC ([10]; S. marcescens, 10 h cultivation at 37° C.): 50 µg/mL
MIC ([11]; M. catarrhalis, 10 h cultivation at 37° C.): 12.5 µg/mL
